{
  "source": "patent US9175077B2",
  "about": "“Nucleic acids encoding biologically active polypeptides derived from a novel early stage pregnancy factor designated maternin (MA)” (NOBEL BIOSCIENCES LLC, priority 1999, dated 2015)",
  "key": {"[1]": {"tested_on": "human carcinoma and sarcoma cells (PC3, KS Y-1)", "test": "Xenotransplanted human tumors in immunodeficient mice", "type": "in vivo", "description": "In the first set of experiments, MA was tested against tumors formed by xenotransplantation of various human carcinoma and sarcoma cells in immunodeficient mice. […] […] Three different synthetic forms of MA were used: full length (MAS3) and the previously described MAS1 and MAS2 (Panel C)."}, "[2]": {"tested_on": "spontaneous fibrosarcomas", "test": "Spontaneous fibrosarcomas in FVB/N mice", "type": "in vivo", "settings": "treatment for 2 weeks", "text": "(§1) As shown, MA killed a wide variety of human tumor cells in vitro and in vivo killed xenotransplanted human tumors in immune deficient mice. We wanted to be certain that the in vivo results would not be limited to immune deficient mice. […] Therefore, we tested the effects of MA on: • spontaneous fibrosarcomas which developed in three older FVB/N mice; and • spontaneous breast carcinomas which developed in three older Sprague-Dawley rats.\nThe tumors were recognized and treated after different stages of development. Samples of the tumor cells were grown in short-term culture and when treated with MA underwent rapid apoptosis."}, "[3]": {"tested_on": "spontaneous breast carcinomas", "test": "Spontaneous breast carcinomas in Sprague-Dawley rats", "type": "in vivo", "settings": "2 weeks of therapy", "text": "as §1\nSimilar results were obtained with the spontaneous mammary carcinomas of rats."}, "[4]": {"tested_on": "Lewis lung (LL) carcinoma cells", "test": "Pro-apoptotic effect on cultured Lewis lung carcinoma cells", "type": "cell-based, mouse", "settings": "same dose range as cultured human tumor cells", "description": "B16 melanoma and Lewis lung (LL) carcinoma cells were first shown to be susceptible to the pro-apoptotic effects of MA (FIG. 6, Panels C and D) at the same dose range used with cultured human tumor cells. The tumor cells grown in standard culture conditions were used to generate metastatic cancers in pathogen-free 6-8 week old C57/BL mice (Charles River). In one set of experiments, the animals were treated with MAS1 or MAS2 at two doses, 0.1 ug or 1.0 ug either in a pre-treatment protocol (two subcutaneous inoculations 24 and 48 hrs before transplanting the tumor cells)."}, "[5]": {"tested_on": "HIV-1", "description": "Virus (MOI of 0.001) was added to 10^6 cells in RPMI-1640 with 10% FCS. One hour later the various polypeptides were added once. The cells cultured for 3 days with 5 ug PHA and 20 i.m. of II-2/ml at 37°, after which virus was estimated by determining p24 (HIV-1) or p27 (SIV) (Organon-Teknika).\nThe effect of native and synthetic MA on HIV-1 infection in vitro was evaluated using PHA and II-2 stimulated primary peripheral blood cells (PBMC), CD4+ T-cells enriched fractions from PBMC, and CD14+ macrophage enriched fractions. Infection was with HIV-1 IIIB (PBMC and CD4+ T-cells), HIV-1 Ba-L (macrophages), and two primary HIV-1 isolates not passaged in any cell line (PBMC)."}, "[6]": {"tested_on": "HIV-1 transgene expression", "test": "HIV-1 transgenic rats", "type": "in vivo", "text": "Because of the extraordinary effects of MA in the mouse modes, we were concerned that the results might be peculiar to the model. Consequently, an HIV-1 transgenic rat model was developed. An additional advantage of the rat model is the larger size of the animals, enabling direct inoculation of MA into the developing pups rather than therapy being indirect (the lactating mother) and limited to the lactation phase. Thus, the transgenic rats can be followed and treated much longer.\nLike the transgenic mice, the transgenic rats contain HIV-1 provirus PNNL 4-3, again deleted in gag/pol, and also develop hyperkeratosis. Additionally, they develop tissue fibrosis, inflammatory changes, and some histopathology more similar to human AIDS than in the mouse model, but unlike the HIV-1 transgenic mice the effect is usually not lethal. The changes correlate with expression of HIV-1 proteins. The transgenic rats are more fully described in copending U.S. patent application Ser. No. 09/058,113, by Bryant et al., filed Apr. 9, 1998, entitled “HIV Transgenic Animals and Uses Therefor,” the entire disclosure of which is incorporated herein by reference.\nInoculation (subcutaneous) of a 250-300 gm mother with 300 pmoles of MA for 10 days began after birth of the pups. […]"}, "[7]": {"test": "Lethal dose taxol in Sprague-Dawley rats", "type": "in vivo", "description": "Sprague-Dawley rats were given taxol in large lethal doses, 4.5 mg in one I.P. inoculation. […] Bone marrow suppression can also be a side effect of the clinical use of taxol.^179 As in the radiation experiments, either MA, pMA, MAS1, or various polypeptide controls were given subcutaneously only in two doses 24 and 48 hrs before taxol treatment or were given 3×/week for 4 weeks. […]"}, "[8]": {"test": "Acutely bled rats", "type": "in vivo, Sprague-Dawley rats", "settings": "i.p. 24 and 48 hrs after 35-40% blood loss", "text": "To delineate the effects of MA on hematopoiesis in the absence of any external bone marrow suppression, blood (35-40% of total blood volume) was removed from five Sprague-Dawley rats by intracardiac puncture. […] Each panel illustrates the mean values for the three animals treated with MAS1. Thus, MA and related derivatives have potent pro-hematopoietic effects."}, "[9]": {"tested_on": "human bone marrow stem cells", "test": "Engraftment of ex vivo expanded hematopoietic progenitor cells in irradiated rats", "parameters": "species or system Sprague Dawley rats", "settings": "Rat S. Dawley irradiated 450 RAD; n = 3", "text": "(§2) The inventors also investigated the effect of MA on engraftment of human bone marrow stem cells [CD34^+, CD38″ cells, long term cultures after 4 mos, and stromal free cultures] ex vivo expanded hematopoietic progenitor cells in Rats irradiated [Sprague DAwley, 450 Rad] and immunodeficient mice [SCID or BNX-XID mice].\n(§3) Measurement of short-term hematopoietic reconstitution kinetics and long term repopulating ability. Just prior to implantation, SCID, BNX-XID-immunodeficient mice and Sprague Dawley rats were exposed to 450 rad total body γ-irradiation. […] But the SCID and BNX-XID immunodeficient mice were repopulated by the cultured, treated human cells."}, "[10]": {"tested_on": "human bone marrow stem cells", "test": "Engraftment of ex vivo expanded hematopoietic progenitor cells in SCID mice", "text": "as §2, §3"}},
  "note": "Entries after “also recorded” stand apart in the source; their conditions may differ.",
  "data": [
    {"sequence": "VVCNYRDVRFESIRLPGCPRGVNPVVSYAVALSCQ [MA]", "values": [
      {"measurement": "tumor regression", "setting": "[1]; 300-500 ng/day (about 100-200 pmoles) for 2 to 3 weeks", "result": "complete tumor regression"},
      {"measurement": "effect on xenotransplanted tumor (qualitative)", "setting": "[1]; controls at equivalent and higher molar concentrations", "result": "marked tumor regression; also recorded: KS tumor abolished"},
      {"measurement": "inhibition of tumor growth in vivo", "setting": "[1]; mouse, in vivo", "result": "60-100%"},
      {"measurement": "blood vessel formation / angiogenesis", "setting": "[1]; thin sections of the tumors", "result": "reduction in blood vessel formation"},
      {"measurement": "tumor outcome", "setting": "[2]", "result": "complete abolishment of the tumor in two of three animals; also recorded: Partial regression was observed in one animal"},
      {"measurement": "tumor outcome", "setting": "[3]", "result": "complete tumor regression; also recorded: partial tumor regression"},
      {"measurement": "susceptibility to pro-apoptotic effects", "setting": "[4]", "result": "susceptible"},
      {"measurement": "inhibition of primary HIV-1 isolates in PBMCs", "setting": "[5]", "result": "inhibited replication"},
      {"measurement": "IC50", "setting": "[5]; read-out: concentration at which virus production was inhibited 50%, IIIB and Ba-L, p24 in extracellular fluid", "result": "~30", "unit": "nM"},
      {"measurement": "survival and development", "setting": "[6]; 300 pmoles to mother for 10 days, then direct subcutaneous inoculation", "result": "survived, developed normally"},
      {"measurement": "transgene expression", "setting": "[6]; rat, in vivo", "result": "markedly reduced"},
      {"measurement": "survival of pretreated animals", "setting": "[7]; low dose, two doses 24 and 48 hrs before taxol", "result": "Sixty-percent"},
      {"measurement": "survival maintained to day 80", "setting": "[7]; therapy maintained 28 days, high dose (1000 ng)", "result": "~80", "unit": "%"},
      {"measurement": "survival maintained to day 80", "setting": "[7]; therapy maintained 28 days, low dose (100 ng)", "result": "about 60%"},
      {"measurement": "survival on day 5", "setting": "[7]; therapy maintained 28 days, low or high dose", "result": 100, "unit": "%"},
      {"measurement": "recovery of peripheral blood cells", "setting": "[8]", "result": "prompt recovery"},
      {"measurement": "CD4", "setting": "[9]", "result": 1, "unit": "%"},
      {"measurement": "CD14", "setting": "[9]", "result": 1, "unit": "%"},
      {"measurement": "CD34", "setting": "[9]", "result": 40, "unit": "%"},
      {"measurement": "CD4", "setting": "[10]", "result": 2, "unit": "%"},
      {"measurement": "CD14", "setting": "[10]", "result": 2, "unit": "%"},
      {"measurement": "CD34", "setting": "[10]", "result": 38, "unit": "%"}
    ]}
  ]
}
